pIC50: −log10 of the molar value.
These molecules were tested against T1, Endothelial lipase (EL) (Homo sapiens, UniProt Q9Y5X9) (assay: Endothelial lipase (EL) enzymatic assay with fluorescent substrate A10070 in DMPG vesicles). Settings: conditioned media from HT-1080 cells overexpressing endogenous EL; 20 min preincubation at 37° C.; read-out: EL IC50.
T1 construct: HT-1080 cells, which were transformed by RAGE technology (Athersys) to overexpress endogenous EL; endogenous in cells; conditioned medium used as the enzyme source
T1 sequence (Q9Y5X9 21-500): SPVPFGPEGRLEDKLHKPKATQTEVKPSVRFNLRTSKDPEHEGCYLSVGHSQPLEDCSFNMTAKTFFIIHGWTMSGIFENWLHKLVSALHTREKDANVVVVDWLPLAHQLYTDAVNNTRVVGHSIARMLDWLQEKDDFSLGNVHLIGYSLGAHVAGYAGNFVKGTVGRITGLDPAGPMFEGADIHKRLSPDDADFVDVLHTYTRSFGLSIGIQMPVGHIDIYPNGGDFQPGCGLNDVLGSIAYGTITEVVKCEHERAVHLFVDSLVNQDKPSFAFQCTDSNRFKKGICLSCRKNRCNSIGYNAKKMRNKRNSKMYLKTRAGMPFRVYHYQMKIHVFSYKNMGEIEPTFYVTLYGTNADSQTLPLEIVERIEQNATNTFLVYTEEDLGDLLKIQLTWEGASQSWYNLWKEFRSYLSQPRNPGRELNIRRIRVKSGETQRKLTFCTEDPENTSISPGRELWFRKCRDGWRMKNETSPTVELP
Assay type: biochemical
How it was run: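 EL activity was followed as a fluorescence rate (488/530 nm, reads every 20 s for 10 min, linear slope) on A10070 doped at 0.05 mole fraction into sonicated DMPG vesicles. Compound was first incubated 20 min at 37 °C, pH 8.0 HEPES/CaCl2 buffer, with conditioned media from EL-overexpressing HT-1080 cells.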

**Q.** `Nc1c(C(=O)N[C@H]2CC[C@@H](NC(=O)c3nc4ccccc4s3)CC2)[nH]c(=O)[nH]c1=O` [Example 117, N-(cis-4-(5-amino-2,6-dioxo-1,2,3,6-tetrahydropyrimidine-4-carboxamido)cyclohexyl)benzo[d] thiazole-2-carboxamide] was tested. Which pIC50 did it give?
**A.** Its pIC50 is 5.92.

**Q.** `O=C(Nc1ccccc1)N[C@H]1CC[C@@H](NC(=O)c2[nH]c(=O)[nH]c(=O)c2O)CC1` [Example 280, 5-hydroxy-2,6-dioxo-N-(cis-4-(3-phenylureido)cyclohexyl)-1,2,3,6-tetrahydropyrimidine-4-carboxamide] was tested. Which pIC50 did it give?
**A.** Its pIC50 is 5.50.

**Q.** How did the pIC50 turn out when `O=C(N[C@H]1CC[C@@H](c2ccccc2)CC1)c1[nH]c(=O)[nH]c(=O)c1NCCc1ccc(Cl)cc1` [Example 218, 5-(4-chlorophenethylamino)-2,6-dioxo-N-(cis-4-phenylcyclohexyl)-1,2,3,6-tetrahydropyrimidine-4-carboxamide] was run?
**A.** The pIC50 was 6.53.

**Q.** With `Nc1c(C(=O)N[C@@H]2CCCc3ccc(C(F)(F)F)cc32)[nH]c(=O)[nH]c1=O` [Example 53, (R)-5-amino-2,6-dioxo-N-(7-(trifluoromethyl)-1,2,3,4-tetrahydronaphthalen-1-yl)-1,2,3,6-tetrahydropyrimidine-4-carboxamide] as the molecule, how does the pIC50 read?
**A.** The pIC50 was 7.74.

Same assay, conditions: range observed in the EL assay; read-out: EL IC50 values

**Q.** `Nc1c(C(=O)NC2CCC(c3cccc(OCc4ccccc4)c3)C2)[nH]c(=O)[nH]c1=O` (stereo not drawn) [Example 104, 5-amino-N-(3-(3-(benzyloxy)phenyl)cyclopentyl)-2,6-dioxo-1,2,3,6-tetrahydropyrimidine-4-carboxamide] was tested. Which pIC50 did it give?
**A.** Its pIC50 is ≥ 5.00.

**Q.** `O=C(N[C@H]1CCCc2ccccc21)c1[nH]c(=O)[nH]c(=O)c1O` [Example 245, (S)-5-hydroxy-2,6-dioxo-N-(1,2,3,4-tetrahydronaphthalen-1-yl)-1,2,3,6-tetrahydropyrimidine-4-carboxamide] was tested. Which pIC50 did it give?
**A.** The pIC50 was ≥ 5.00.

**Q.** How did the pIC50 turn out when `Nc1c(C(=O)N[C@@H]2CC[C@H](c3ccccc3)C2)[nH]c(=O)[nH]c1=O` [Example 75, 5-amino-2,6-dioxo-N-((1R,3S)-3-phenylcyclopentyl)-1,2,3,6-tetrahydropyrimidine-4-carboxamide] was run?
**A.** Its pIC50 is ≥ 5.00.

**Q.** `Nc1c(C(=O)N[C@H]2CC[C@@H](NC(=O)c3nc4ccccc4s3)CC2)[nH]c(=O)[nH]c1=O` [Example 117, N-(cis-4-(5-amino-2,6-dioxo-1,2,3,6-tetrahydropyrimidine-4-carboxamido)cyclohexyl)benzo[d] thiazole-2-carboxamide] was tested. Which pIC50 did it give?
**A.** Its pIC50 is ≥ 5.00.

**Q.** How did the pIC50 turn out when `O=C(N[C@H]1CCCc2c(OCC(F)(F)F)cccc21)c1[nH]c(=O)[nH]c(=O)c1O` [Example 246, (S)-5-hydroxy-2,6-dioxo-N-(5-(2,2,2-trifluoroethoxy)-1,2,3,4-tetrahydronaphthalen-1-yl)-1,2,3,6-tetrahydropyrimidine-4-carboxamide] was run?
**A.** Its pIC50 is ≥ 5.00.

**Q.** `O=C(N[C@H]1CC[C@@H](c2ccccc2)CC1)c1[nH]c(=O)n(CCCc2ccccc2)c(=O)c1O` [Example 270, 5-Hydroxy-2,6-dioxo-N-(cis-4-phenylcyclohexyl)-1-(3-phenylpropyl)-1,2,3,6-tetrahydropyrimidine-4-carboxamide] was tested. Which pIC50 did it give?
**A.** Its pIC50 is ≥ 5.00.

**Q.** `O=C(Nc1ccccc1)N[C@H]1CC[C@@H](NC(=O)c2[nH]c(=O)[nH]c(=O)c2O)CC1` [Example 280, 5-hydroxy-2,6-dioxo-N-(cis-4-(3-phenylureido)cyclohexyl)-1,2,3,6-tetrahydropyrimidine-4-carboxamide] was tested. Which pIC50 did it give?
**A.** The pIC50 was ≥ 5.00.

**Q.** `Nc1c(C(=O)N[C@H]2CC[C@@H](c3ccc(-c4ccc(Cl)cc4)cc3)C2)[nH]c(=O)[nH]c1=O` [Example 170, 5-amino-N-((1S,3R)-3-(4′-chlorobiphenyl-4-yl)cyclopentyl)-2,6-dioxo-1,2,3,6-tetrahydropyrimidine-4 carboxamide] was tested. Which pIC50 did it give?
**A.** The pIC50 was ≥ 5.00.

**Q.** `O=C(N[C@H]1CC[C@H](C(=O)Nc2ccccc2)C1)c1[nH]c(=O)[nH]c(=O)c1O` [Example 290, 5-hydroxy-2,6-dioxo-N-((1S,3S)-3-(phenylcarbamoyl)cyclopentyl)-1,2,3,6-tetrahydropyrimidine-4-carboxamide] was tested. Which pIC50 did it give?
**A.** Its pIC50 is ≥ 5.00.

**Q.** `Nc1c(C(=O)NC2CCC(c3cnn(Cc4ccccc4)c3)C2)[nH]c(=O)[nH]c1=O` (single isomer, unassigned) [Example 131, 5-amino-N-(3-(1-benzyl-1H-pyrazol-4-yl)cyclopentyl)-2,6-dioxo-1,2,3,6-tetrahydropyrimidine-4-carboxamide] was tested. Which pIC50 did it give?
**A.** The pIC50 was ≥ 5.00.

**Q.** `CC(C)Oc1ccc(C2CCC(NC(=O)c3[nH]c(=O)[nH]c(=O)c3O)C2)cc1` (stereo not drawn) [Example 294, 5-hydroxy-N-(3-(4-isopropoxyphenyl)cyclopentyl)-2,6-dioxo-1,2,3,6-tetrahydropyrimidine-4 carboxamide] was tested. Which pIC50 did it give?
**A.** The pIC50 was ≥ 5.00.

**Q.** `O=C(N[C@H]1CC[C@@H](c2ccccc2)CC1)c1[nH]c(=O)[nH]c(=O)c1NC1CCC1` [Example 233, 5-(cyclobutylamino)-2,6-dioxo-N-(cis-4-phenylcyclohexyl)-1,2,3,6-tetrahydropyrimidine-4-carboxamide] was tested. Which pIC50 did it give?
**A.** Its pIC50 is ≥ 5.00.

**Q.** With `O=C(N[C@H]1CC[C@@H](c2ccccc2)CC1)c1[nH]c(=O)[nH]c(=O)c1NCCc1ccc(Cl)cc1` [Example 218, 5-(4-chlorophenethylamino)-2,6-dioxo-N-(cis-4-phenylcyclohexyl)-1,2,3,6-tetrahydropyrimidine-4-carboxamide] as the molecule, how does the pIC50 read?
**A.** The pIC50 was ≥ 5.00.

**Q.** How did the pIC50 turn out when `Nc1c(C(=O)N[C@@H]2CCCc3ccc(C(F)(F)F)cc32)[nH]c(=O)[nH]c1=O` [Example 53, (R)-5-amino-2,6-dioxo-N-(7-(trifluoromethyl)-1,2,3,4-tetrahydronaphthalen-1-yl)-1,2,3,6-tetrahydropyrimidine-4-carboxamide] was run?
**A.** The pIC50 was ≥ 5.00.

**Q.** `Nc1c(C(=O)N[C@H]2CCCc3cc(C(F)(F)F)ccc32)[nH]c(=O)[nH]c1=O` [Example 52, (S)-5-amino-2,6-dioxo-N-(6-(trifluoromethyl)-1,2,3,4-tetrahydronaphthalen-1-yl)-1,2,3,6-tetrahydropyrimidine-4-carboxamide] was tested. Which pIC50 did it give?
**A.** Its pIC50 is ≥ 5.00.

**Q.** How did the pIC50 turn out when `Nc1c(C(=O)N[C@@H]2CCCc3c(OCC4CCCC4)cccc32)[nH]c(=O)[nH]c1=O` [Example 113, (R)-5-amino-N-(5-(cyclopentylmethoxy)-1,2,3,4-tetrahydronaphthalen-1-yl)-2,6-dioxo-1,2,3,6-tetrahydropyrimidine-4-carboxamide] was run?
**A.** The pIC50 was ≥ 5.00.

**Q.** With `CC(=O)Nc1ccccc1-c1ccc([C@@H]2CC[C@H](NC(=O)c3[nH]c(=O)[nH]c(=O)c3N)C2)cc1` [Example 162, N-((1S,3R)-3-(2′-acetamidobiphenyl-4-yl)cyclopentyl)-5-amino-2,6-dioxo-1,2,3,6-tetrahydropyrimidine-4-carboxamide] as the molecule, how does the pIC50 read?
**A.** The pIC50 was ≥ 5.00.

**Q.** With `Nc1c(C(=O)N[C@H]2CC[C@@H](c3ccc(Cl)c(Cl)c3)C2)[nH]c(=O)[nH]c1=O` [Example 67, 5-amino-N-((1S,3R)-3-(3,4-dichlorophenyl)cyclopentyl)-2,6-dioxo-1,2,3,6-tetrahydropyrimidine-4-carboxamide] as the molecule, how does the pIC50 read?
**A.** The pIC50 was ≥ 5.00.

**Q.** How did the pIC50 turn out when `COC(=O)C[C@H]1C[C@H](NC(=O)c2[nH]c(=O)[nH]c(=O)c2N)c2ccccc2[C@@H]1c1ccccc1` [Example 21, methyl 2-((1S,2R,4S)-4-(5-amino-2,6-dioxo-1,2,3,6-tetrahydropyrimidine-4-carboxamido)-1-phenyl-1,2,3,4-tetrahydronaphthalen-2-yl)acetate] was run?
**A.** The pIC50 was ≥ 5.00.

**Q.** `O=C(N[C@@H]1CC[C@H](c2ccccc2)C1)c1[nH]c(=O)[nH]c(=O)c1O` [Example 271, 5-Hydroxy-2,6-dioxo-N-((1R,3S)-3-phenylcyclopentyl)-1,2,3,6-tetrahydropyrimidine-4-carboxamide] was tested. Which pIC50 did it give?
**A.** Its pIC50 is ≥ 5.00.

**Q.** With `CCn1c(=O)[nH]c(C(=O)N[C@H]2CC[C@@H](c3ccccc3)CC2)c(O)c1=O` [Example 239, 1-Ethyl-5-hydroxy-2,6-dioxo-N-(cis-4-phenylcyclohexyl)-1,2,3,6-tetrahydropyrimidine-4-carboxamide] as the molecule, how does the pIC50 read?
**A.** The pIC50 was ≥ 5.00.

**Q.** How did the pIC50 turn out when `Cn1c(=O)[nH]c(C(=O)N[C@H]2CC[C@@H](c3ccccc3)CC2)c(O)c1=O` [Example 242, 5-hydroxy-1-methyl-2,6-dioxo-N-(cis-4-phenylcyclohexyl)-1,2,3,6-tetrahydropyrimidine-4-carboxamide] was run?
**A.** The pIC50 was ≥ 5.00.

**Q.** `CC(C)(C)OC(=O)N1CCC(NC(=O)c2[nH]c(=O)[nH]c(=O)c2N)C1` (stereo not drawn) [Example 62, tert-butyl 3-(5-amino-2,6-dioxo-1,2,3,6-tetrahydropyrimidine-4-carboxamido)pyrrolidine-1-carboxylate] was tested. Which pIC50 did it give?
**A.** Its pIC50 is ≥ 5.00.

**Q.** `Nc1c(C(=O)N[C@H]2CC[C@@H](c3ccc(-c4cccc(CO)c4)cc3)C2)[nH]c(=O)[nH]c1=O` [Example 178, 5-amino-N-((1S,3R)-3-(3′-(hydroxymethyl)biphenyl-4-yl)cyclopentyl)-2,6-dioxo-1,2,3,6-tetrahydropyrimidine-4-carboxamide] was tested. Which pIC50 did it give?
**A.** Its pIC50 is ≥ 5.00.

**Q.** How did the pIC50 turn out when `Nc1c(C(=O)N[C@H]2CCCc3cc(OCc4ccccc4)ccc32)[nH]c(=O)[nH]c1=O` [Example 93, (S)-5-amino-N-(6-(benzyloxy)-1,2,3,4-tetrahydronaphthalen-1-yl)-2,6-dioxo-1,2,3,6-tetrahydropyrimidine-4-carboxamide] was run?
**A.** The pIC50 was ≥ 5.00.

**Q.** How did the pIC50 turn out when `O=C(N[C@H]1CC[C@@H](c2ccccc2)CC1)c1[nH]c(=O)[nH]c(=O)c1NCc1ccc(C(F)(F)F)cc1` [Example 220, 2,6-dioxo-N-(cis-4-phenylcyclohexyl)-5-(4-(trifluoromethyl)benzylamino)-1,2,3,6-tetrahydropyrimidine-4-carboxamide] was run?
**A.** The pIC50 was ≥ 5.00.

**Q.** `O=C(N[C@@H]1CC[C@@H](c2ccc(Cl)c(Cl)c2)C1)c1[nH]c(=O)[nH]c(=O)c1O` [Example 251, N-((1R,3R)-3-(3,4-dichlorophenyl)cyclopentyl)-5-hydroxy-2,6-dioxo-1,2,3,6-tetrahydropyrimidine-4-carboxamide] was tested. Which pIC50 did it give?
**A.** The pIC50 was ≥ 5.00.

**Q.** With `COc1ccccc1C1CCC(NC(=O)c2[nH]c(=O)[nH]c(=O)c2O)C1` (stereo not drawn) [Example 292, 5-hydroxy-N-(3-(2-methoxyphenyl)cyclopentyl)-2,6-dioxo-1,2,3,6-tetrahydropyrimidine-4 carboxamide] as the molecule, how does the pIC50 read?
**A.** The pIC50 was ≥ 5.00.

**Q.** How did the pIC50 turn out when `CN1CCC(Nc2c(C(=O)N[C@H]3CC[C@@H](c4ccccc4)CC3)[nH]c(=O)[nH]c2=O)CC1` [Example 230, 5-(1-methylpiperidin-4-ylamino)-2,6-dioxo-N-(cis-4-phenylcyclohexyl)-1,2,3,6-tetrahydropyrimidine-4-carboxamide] was run?
**A.** The pIC50 was ≥ 5.00.

Source: patent US9199946B2, “Pyrimidinone carboxamide inhibitors of endothelial lipase” (BRISTOL-MYERS SQUIBB COMPANY, priority 2012, dated 2015)
